Series [1] relates to HIF1α. Briefly: Immunoblot of HIF1α in primary hepatocytes. In kind it is cell-based. Particulars: cultured primary hepatocytes. For orientation: A western blot detects proteins with antibodies after separation by electrophoresis.
For the next series, the system named is HIF. Briefly: HRE-luc reporter in primary hepatocytes. The series is classed as cell-based. The conditions noted are these: cultured primary hepatocytes. From the text: Plasmids expressing cDNAs for HA-HIF-1α […]/P564A (18955) were purchased from Addgene. HRE-LUC reporter construct was generously provided by Randall Johnson (UCSD).
In another series the test system is INS-1 cells. Briefly: Cell size determination in INS-1 cells. The series is classed as cell-based, rat. The conditions noted are these: co-incubation with FSK. As to the method: For cell size measurements, INS-1 cells were plated on 6 cm dishes, treated as indicated, trypsinized and resuspended in PBS. Cell diameter was measured using a particle size counter.

The subject of another series is mTORC1. Briefly: Immunoblot of phospho-S6 in INS-1 cells. The series is classed as cell-based, rat. Particulars: co-incubation of mTOR inhibitor with FSK. How it is done:
(§1) Immunoblot and immunoprecipitation: Immunoblots were performed as described (Dentin et al., 2008). For immunoprecipitations, cell lysates were incubated with primary antibody and 25 μl of a 50% slurry of protein G agarose beads for 4 hours with rotation at 4° C. Immunoprecipitates were washed with lysis buffer and denatured by boiling in 20 μl SDS sample buffer.
(§2) INS-1 insulinoma cells were cultured in RPMI 1640 (Mediatech) with 10% heat inactivated fetal bovine serum (Sigma), 2 mM glutamine (Mediatech), 1 mM sodium pyruvate (Mediatech), 100 μg/ml penicillin-streptomycin (Mediatech) and 0.05 mM β-mercaptoethanol. HEK 293T cells were cultured in DMEM (Mediatech) with 10% fetal bovine serum and 100 μg/ml penicillin-streptomycin. Forskolin (10 μM), LY294002 (50 μM), and DMOG (1 mM) were added to cells as indicated. Cells were exposed to rapamycin (50 nM) or to cycloheximide (100 μg/ml) overnight. For glucose and Exendin-4 treatments, INS-1 cells were glucose and serum starved for 1 hour, and stimulated with glucose or 2-deoxyglucose (20 mM) with or without Exendin-4 (10 nM). HEK 293T cells were transfected with polyethylenimine (PEI) and INS-1 cells with Lipofectamine2000 (Invitrogen; 11668-019). For HIF-1α translational reporter experiment, INS-1 cells were transfected with pLUXHIF1α5′UTR or pLUX control vector (generous gift of John Blenis). […]

Series [2] deals with HIF1α. Briefly: Immunoblot of HIF1α in INS-1 cells. In kind it is cell-based, rat. How it is done: as §1
as §2, with “Blenis). After 24 hours, cells were exposed to rapamycin overnight where indicated. After forskolin treatment, cells were harvested for Renilla/firefly luciferase activity.” for “Blenis).”

In another series the test system is INS-1 insulinoma cells. In words: Gene profiling and Q-PCR of cAMP inducible genes in INS-1 cells. The series is classed as cell-based, rat. The conditions noted are these: INS-1 cells exposed to FSK. How it is done:
(§3) INS-1 insulinoma cells were cultured in RPMI 1640 (Mediatech) with 10% heat inactivated fetal bovine serum (Sigma), 2 mM glutamine (Mediatech), 1 mM sodium pyruvate (Mediatech), 100 μg/ml penicillin-streptomycin (Mediatech) and 0.05 mM β-mercaptoethanol. HEK 293T cells were cultured in DMEM (Mediatech) with 10% fetal bovine serum and 100 μg/ml penicillin-streptomycin. Forskolin (10 μM), LY294002 (50 μM), and DMOG (1 mM) were added to cells as indicated. Cells were exposed to rapamycin (50 nM) or to cycloheximide (100 μg/ml) overnight. For glucose and Exendin-4 treatments, INS-1 cells were glucose and serum starved for 1 hour, and stimulated with glucose or 2-deoxyglucose (20 mM) with or without Exendin-4 (10 nM). HEK 293T cells were transfected with polyethylenimine (PEI) and INS-1 cells with Lipofectamine2000 (Invitrogen; 11668-019). For HIF-1α translational reporter experiment, INS-1 cells were transfected with pLUXHIF1α5′UTR or pLUX control vector (generous gift of John Blenis). After 24 hours, cells were exposed to rapamycin overnight where indicated. After forskolin treatment, cells were harvested for Renilla/firefly luciferase activity. Normalized luciferase activities are shown.
Gene profiling experiments were performed on total RNA from INS-1 cells using an Affymetrix Rat Gene Array as previously described (Zhang et al., 2005).
mRNA levels were quantified by Q-PCR analysis as previously described (Dentin, 2007). Oligonucleotides were designed to target rat gene sequences.

The conditions of series [3]: cited from earlier work.
Series [4] deals with hypoxia-inducible factor (HIF). In words: HRE-luc reporter transient assay in INS-1 cells. In kind it is cell-based, rat. How it is done:
as §3
Plasmids expressing cDNAs for HA-HIF-1α P402A/P564A (18955) were purchased from Addgene. HRE-LUC reporter construct was generously provided by Randall Johnson (UCSD).

The conditions of series [5]: mildly hyperglycaemic patients with Type 2 diabetes on metformin; cited from earlier work.
A further series has as its target human GLP-1 receptor (Homo sapiens, UniProt P43220). Particulars: greater affinity than native GLP-1; cited from earlier work.
Where [6] appears, read: prolonged exposure, particularly under high glucose (20 mM).
The mark [7] stands for this setting: plus protein synthesis inhibitor.

Data on ten compounds can be found in patent publication US20130143800A1, “COMBINATION THERAPIES TO TREAT DIABETES” (RESEARCH DEVELOPMENT FOUNDATION, priority 2011, published 2013).

Like-named read-outs stand apart in the source and are kept apart here.

human GLP-1 receptor, sequence (P43220 24-463): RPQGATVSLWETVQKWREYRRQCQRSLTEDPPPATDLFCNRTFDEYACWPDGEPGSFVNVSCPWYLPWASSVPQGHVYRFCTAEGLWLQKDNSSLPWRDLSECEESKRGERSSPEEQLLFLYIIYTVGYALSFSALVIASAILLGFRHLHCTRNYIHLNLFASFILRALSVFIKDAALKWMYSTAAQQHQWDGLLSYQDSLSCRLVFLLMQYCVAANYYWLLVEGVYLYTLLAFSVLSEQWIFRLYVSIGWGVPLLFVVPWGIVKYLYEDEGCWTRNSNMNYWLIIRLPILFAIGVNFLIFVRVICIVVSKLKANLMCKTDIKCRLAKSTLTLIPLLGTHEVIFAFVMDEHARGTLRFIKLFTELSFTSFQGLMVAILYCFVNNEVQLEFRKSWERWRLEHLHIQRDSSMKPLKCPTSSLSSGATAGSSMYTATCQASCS

As for `C=C[C@@]1(C)CC(=O)[C@]2(O)[C@@]3(C)[C@@H](O)CCC(C)(C)[C@@H]3[C@H](O)[C@H](OC(C)=O)[C@@]2(C)O1` [FSK, Forskolin], the HIF1α accumulation entry in the series on HIF1α [1] was “no effect”. Also, in the series with HIF, the HRE-luc reporter activation entry is recorded as “no effect”.
For `CC(C)n1nc(-c2cc3cc(O)ccc3[nH]2)c2c(N)ncnc21` [PP242], the “effects of FSK on cell size” value with INS-1 cells is listed as “blocked”. Moreover, the “effects of FSK on S6 phosphorylation” value in the series with mTORC1 was “blocked”. Further, the “effects of FSK on HIF1α induction” value with HIF1α [2] (co-incubation of mTOR inhibitor with FSK) is on record as “blocked”.
Consider `CO[C@H]1C[C@@H]2CC[C@@H](C)[C@@](O)(O2)C(=O)C(=O)N2CCCC[C@H]2C(=O)O[C@H]([C@H](C)C[C@@H]2CC[C@@H](O)[C@H](OC)C2)CC(=O)[C@H](C)/C=C(\C)[C@@H](O)[C@@H](OC)C(=O)[C@H](C)C[C@H](C)/C=C/C=C/C=C/1C` [rapamycin], for which the “induction of CREB target genes such as NR4A2” value with INS-1 insulinoma cells (plus rapamycin) was “no effect”.
Regarding Albiglutide, in series [3] (after administration), the half-life result is recorded as “four to seven”.
Turning to Exendin-4: GLP-1 agonist, the HRE-luc reporter activity entry in [4] (setting [6]) is listed as “increased”. Besides, the HIF1α protein accumulation entry with HIF1α [2] (setting [6]) was “increased”.
Consider `CC(C)Cn1c(=O)n(C)c(=O)c2[nH]cnc21` [IBMX], for which the HRE-luc reporter activity entry in series [4] (time not stated) is on record as “increased”.
With `COC(=O)CNC(=O)C(=O)OC` [DMOG, Dimethyloxalyl Glycine], the HIF1α accumulation entry with HIF1α [1] was “triggered”. Also, the HIF1α protein levels result in the series with HIF1α [2] (agent alone) is recorded as “increased”. In addition, in the series with HIF, the HRE-luc reporter activation entry is recorded as “triggered”.
As for `C[C@@H]1C[C@@H]([C@H](O)CC2CC(=O)NC(=O)C2)C(=O)[C@@H](C)C1` [cycloheximide], in the series on INS-1 insulinoma cells (setting [7]), the “expression of CREB target genes” value is on record as “enhanced” and the “expression of late phase genes like HMOX1 by FSK” value is given as “reduced”.
Turning to `O=S(=O)(NCCNC/C=C/c1ccc(Br)cc1)c1cccc2cnccc12` [H89], in series [4] (co-incubation with inhibitor), the “induction of the HRE-luc reporter by FSK” value is listed as “blocked” and the “induction of the HRE-luc reporter by IBMX” value is reported as “blocked”.
For Lixisenatide, the glycaemic control result in series [5] is given as “significantly improve”. Moreover, on human GLP-1 receptor, the “affinity for the human GLP-1 receptor compared with native GLP-1” value was “approximately 4 fold”. In addition, the half-life in series [3] (in vivo) was 2.5 to 4 h.

The term half-life denotes how long it takes for the measured level to halve.
